Source: patent US20230013669A1, “Antibacterial Treatment Using a Cannabinoid and an Active Agent” (priority 2019, published 2023)
Values joined by “and” are separate entries in the source; they are usually repeats but may differ in a detail not shown here. Equal values may be shown once. Read-outs that look alike come from different tables or passages of the source.

How the values were obtained:
Test in all cases: Synergy of cannabidiol with cell-wall disrupting agent (CBD MIC in combination, FICI)
Type in all cases: cell-based
[1] = system: Acinetobacter baumannii 03.021.1 (GN_038), Colistin resistant; conditions: for MIC: Acinetobacter baumannii
Procedure: (§1) The compounds were stored short term at 4° C.
(§2) Analysis was performed using Microsoft Excel.

[2] = system: Klebsiella pneumoniae BAA-2146 (GN_045), NDM-1; conditions: for MIC: Klebsiella pneumoniae
Procedure: as §1, §2

[3] = system: Pseudomonas aeruginosa ATCC 27853 (GN_042)
Procedure: as §1, §2

[4] = Example 9, GN_038, listed as CBD
[5] = CBD with Ceftazidime, Pseudomonas aeruginosa ATCC 27853

C=C(C)C1CCC(C)=CC1c1c(O)cc(CCCCC)cc1O (stereo not drawn) [Cannabidiol, 2-[3-methyl-6-(1-methylethenyl)-2-cyclohexen-1-yl]-5-pentyl-1,3-benzenediol]
MIC ([1]; read-out: CBD MIC with MCC_00636 at concentration 0.25 μg/mL, Example 8, GN_038): 2 µg/mL
MIC ([1]; read-out: CBD MIC with MCC_00636 at concentration 0.5 μg/mL, Example 8, GN_038): 0.000977 µg/mL
MIC ([1]; read-out: CBD MIC with MCC_00636 at concentration […], Example 8, GN_038): 32 µg/mL
MIC ([1]; read-out: CBD MIC with MCC_09222 at concentration 8 μg/mL, Example 9, GN_038): 4 µg/mL
MIC ([1]; read-out: CBD MIC with MCC_09222 at concentration 16 μg/mL, Example 9, GN_038): 2 µg/mL
MIC ([1]; read-out: CBD MIC with MCC_09222 at concentration 32 μg/mL, Example 9, GN_038): 1 µg/mL
MIC ([1]; read-out: CBD MIC with MCC_09222 at concentration 64 μg/mL, Example 9, GN_038): 0.000977 µg/mL
MIC ([1]; read-out: CBD MIC with MCC_09222 at concentration 128 μg/mL, Example 9, GN_038): 0.000977 µg/mL
cannabidiol combined with Polymyxin B: synergy ([1]; Example 8): synergy
CBD MIC with MCC_00636 at concentration 0.25 μg/mL ([1]; Example 8, GN_038, listed as CBD): 4 µg/mL
cannabidiol in combination with MCC_09222: synergy ([1]; Example 9): synergistic effect
CBD MIC with MCC_09222 at concentration 8 μg/mL [1, 4]: 2 µg/mL
CBD MIC with MCC_09222 at concentration 32 μg/mL [1, 4]: 0.5 µg/mL
cannabidiol in combination with MCC_09222: synergy ([2]; Example 9): synergistic effect
CBD MIC with MCC_09222 at concentration 16 μg/mL ([2]; Example 9, GN_045, listed as CBD): 2 µg/mL
MIC ([2]; BAA2146, read-out: CBD MIC with MCC_09222 at concentration 8 μg/mL, Example 9, GN_045): 16 µg/mL
MIC ([2]; BAA2146, read-out: CBD MIC with MCC_09222 at concentration 16 μg/mL, Example 9, GN_045): 4 µg/mL
MIC ([2]; BAA2146, read-out: CBD MIC with MCC_09222 at concentration 32 μg/mL, Example 9, GN_045): 2 µg/mL
MIC ([2]; BAA2146, read-out: CBD MIC with MCC_09222 at concentration 64 μg/mL, Example 9, GN_045): 2 µg/mL
MIC ([2]; BAA2146, read-out: CBD MIC with MCC_09222 at concentration 128 μg/mL, Example 9, GN_045): 0.000977 µg/mL
CBD MIC with Aztreonam ([3]; Aztreonam at 4 μg/mL): 0.001 µg/mL
FICI ([3]; CBD with Aztreonam at 0.25 μg/mL, CBD MIC taken as 256 μg/mL): 1.0625
FICI ([3]; CBD with Aztreonam at 1 μg/mL, CBD MIC taken as 256 μg/mL): 1.25
FICI ([3]; CBD with Aztreonam at 2 μg/mL, CBD MIC taken as 256 μg/mL): 0.5004 and 0.5039
FICI ([3]; CBD with Aztreonam at 4 μg/mL, CBD MIC taken as 256 μg/mL): 1
FICI range ([3]; CBD with Aztreonam, Synergy table (Table 76)): 0.5
FICI range ([3]; CBD with Aztreonam, all tested concentrations (Table 74)): 0.5-1.25
FICI ([3]; CBD with Cefepime at 0.015 μg/mL, CBD MIC taken as 256 μg/mL): 1
FICI ([3]; CBD with Cefepime at 0.031 μg/mL, CBD MIC taken as 256 μg/mL): 1
FICI ([3]; CBD with Cefepime at 0.062 μg/mL, CBD MIC taken as 256 μg/mL): 1
FICI ([3]; CBD with Cefepime at 0.25 μg/mL, CBD MIC taken as 256 μg/mL): 1.001
FICI ([3]; CBD with Cefepime at 0.5 μg/mL, CBD MIC taken as 256 μg/mL): 1.002
FICI range ([3]; CBD with Cefepime, all tested concentrations (Table 79)): 1-1
FICI ([3]; CBD with Cefotetan at 4 μg/mL, CBD MIC taken as 256 μg/mL): 1.016
FICI ([3]; CBD with Cefotetan at 16 μg/mL, CBD MIC taken as 256 μg/mL): 1.0625
FICI ([3]; CBD with Cefotetan at 64 μg/mL, CBD MIC taken as 256 μg/mL): 1.25
FICI ([3]; CBD with Cefotetan at 128 μg/mL, CBD MIC taken as 256 μg/mL): 1.5
FICI range (MIC table) ([3]; CBD with Cefotetan, Pseudomonas aeruginosa ATCC 27853): 1.02-1.5
FICI ([3]; CBD with Ceftazidime at 0.25 μg/mL, Pseudomonas aeruginosa ATCC 27853): 1.0625
FICI ([3]; CBD with Ceftazidime at 1 μg/mL, Pseudomonas aeruginosa ATCC 27853): 1.25
FICI ([3]; CBD with Ceftazidime at 2 μg/mL, Pseudomonas aeruginosa ATCC 27853): 0.5
FICI ([3]; CBD with Ceftazidime at 4 μg/mL, Pseudomonas aeruginosa ATCC 27853): 1
FICI range (MIC table) [3, 5]: 0.5-1.25
FICI range (Synergy table) [3, 5]: 0.5
FICI ([3]; CBD with Cefuroxime at 4 μg/mL, Pseudomonas aeruginosa ATCC 27853): 1.016
FICI ([3]; CBD with Cefuroxime at 16 μg/mL, Pseudomonas aeruginosa ATCC 27853): 1.0625
FICI ([3]; CBD with Cefuroxime at 64 μg/mL, Pseudomonas aeruginosa ATCC 27853): 1.25
FICI ([3]; CBD with Cefuroxime at 128 μg/mL, Pseudomonas aeruginosa ATCC 27853): 1.5
FICI ([3]; CBD with Colistin at 0.031 μg/mL, Pseudomonas aeruginosa ATCC 27853): 1.031
FICI ([3]; CBD with Colistin at 0.062 μg/mL, Pseudomonas aeruginosa ATCC 27853): 1.062
FICI ([3]; CBD with Colistin at 0.25 μg/mL, Pseudomonas aeruginosa ATCC 27853): 1.25
FICI ([3]; CBD with Colistin at 0.5 μg/mL, Pseudomonas aeruginosa ATCC 27853): 1.5
FICI ([3]; CBD with Colistin at 1 μg/mL, Pseudomonas aeruginosa ATCC 27853): 1
FICI range (MIC table) ([3]; CBD with Colistin, Pseudomonas aeruginosa ATCC 27853): 1-1.5
FICI range (MIC table) ([3]; CBD with MCC_6442, Pseudomonas aeruginosa ATCC 27853): 1-1.5
FICI ([3]; CBD with MCC_6442 at 0.25 μg/mL, Pseudomonas aeruginosa ATCC 27853): 1.0625
FICI ([3]; CBD with MCC_6442 at 1 μg/mL, Pseudomonas aeruginosa ATCC 27853): 1.25
FICI ([3]; CBD with MCC_6442 at 2 μg/mL, Pseudomonas aeruginosa ATCC 27853): 1.5
FICI ([3]; CBD with MCC_6442 at 4 μg/mL, Pseudomonas aeruginosa ATCC 27853): 1
FICI ([3]; CBD with Octapeptin C4 at 0.25 μg/mL, CBD MIC taken as 256 μg/mL): 1.0625
FICI ([3]; CBD with Octapeptin C4 at 0.5 μg/mL, CBD MIC taken as 256 μg/mL): 1.0625
FICI ([3]; CBD with Octapeptin C4 at 1 μg/mL, CBD MIC taken as 256 μg/mL): 1.25
FICI ([3]; CBD with Octapeptin C4 at 2 μg/mL, CBD MIC taken as 256 μg/mL): 1.25 and 1.5
FICI ([3]; CBD with Octapeptin C4 at 4 μg/mL, CBD MIC taken as 256 μg/mL): 0.5 and 1
FICI ([3]; CBD with Octapeptin C4 at […], CBD MIC taken as 256 μg/mL): 1.016
FICI range ([3]; CBD with Spero SPR206, 1st of 3 experiments): 1-4
FICI range ([3]; CBD with Spero SPR206, 3rd of 3 experiments): 1.13-5
FICI ([3]; CBD with Spero SPR206 at 0.25 μg/mL, 1st of 3 experiments, CBD MIC taken as 256 μg/mL): 1.25
FICI ([3]; CBD with Spero SPR206 at 0.25 μg/mL, 3rd of 3 experiments, CBD MIC taken as 256 μg/mL): 1.25
FICI ([3]; CBD with Spero SPR206 at 0.5 μg/mL, 1st of 3 experiments, CBD MIC taken as 256 μg/mL): 1.5
FICI ([3]; CBD with Spero SPR206 at 0.5 μg/mL, 3rd of 3 experiments, CBD MIC taken as 256 μg/mL): 1.5
FICI ([3]; CBD with Spero SPR206 at 1 μg/mL, 1st of 3 experiments, CBD MIC taken as 256 μg/mL): 1
FICI ([3]; CBD with Spero SPR206 at 1 μg/mL, 3rd of 3 experiments, CBD MIC taken as 256 μg/mL): 2
FICI ([3]; CBD with Spero SPR206 at 2 μg/mL, 1st of 3 experiments, CBD MIC taken as 256 μg/mL): 2
FICI ([3]; CBD with Spero SPR206 at 2 μg/mL, 3rd of 3 experiments, CBD MIC taken as 256 μg/mL): 3
FICI ([3]; CBD with Spero SPR206 at 4 μg/mL, 1st of 3 experiments, CBD MIC taken as 256 μg/mL): 4
FICI ([3]; CBD with Spero SPR206 at 4 μg/mL, 3rd of 3 experiments, CBD MIC taken as 256 μg/mL): 5
FICI ([3]; CBD with Ticarcillin at 2 μg/mL, Pseudomonas aeruginosa ATCC 27853): 1.0625
FICI ([3]; CBD with Ticarcillin at 4 μg/mL, Pseudomonas aeruginosa ATCC 27853): 1.25
FICI ([3]; CBD with Ticarcillin at 8 μg/mL, Pseudomonas aeruginosa ATCC 27853, listed as CBD): 1.25 and 1.5
FICI ([3]; CBD with Ticarcillin at 16 μg/mL, Pseudomonas aeruginosa ATCC 27853, listed as CBD): 0.5 and 1
FICI ([3]; CBD with Ticarcillin at 32 μg/mL, Pseudomonas aeruginosa ATCC 27853, listed as CBD): 1 and 2
FICI ([3]; CBD with Ticarcillin at 64 μg/mL, Pseudomonas aeruginosa ATCC 27853, listed as CBD): 2 and 4
FICI range (Synergy table) ([3]; CBD with Ticarcillin, Pseudomonas aeruginosa ATCC 27853): 0.5
